Laboratory results as given in article PMC6068397 (ACS nano, 2018).
“Also recorded” adds a separate entry of the source.

Assays:
native MOR [1] = details: optical assays; cited from earlier work
[2] = test system: water-soluble μ-opioid receptor (wsMOR); assay: wsMOR-functionalized graphene field-effect transistor; assay type: binding, human; details: GFET, 1 nM oxytocin solution
[3] = test system: water-soluble μ-opioid receptor (wsMOR); assay type: binding, human; details: 1× PBS
native MOR [4] = details: cited from earlier work

For [D-Ala^2, N-MePhe^4, Gly-ol]-enkephalin, the “KA, binding between native MOR and enkephalin” value (native MOR [1]) is given as 1.2−3.1 nM.

With oxytocin the “Level of nonspecific binding to wsMOR” value [2] was “low level of nonspecific binding”, the “Sensor response (shift of the Dirac voltage, ΔVD)” value ([2]; negative control) was 0.17 V and the “Response of the biosensor (selectivity, negative control)” value ([3]; concentrations below 1 μM, graphene microelectrode) was “essentially negligible”. The “Specific binding to native MOR” value (native MOR [4]) was “known not to bind specifically to native MOR”.

With β-endorphin the “Ratio of amplitude A, β-endorphin to enkephalin” value ([3]; larger than the amplitude found for enkephalin) was ~ 1.6 times and the Limit of detection ([3]; physiological ionic strength) was “picomolar range; also recorded: picomolar level”.
